Assay results reported in US20220296535A1, “Antibacterial Dosage Regime Using Cannabinoids” (Botanix Pharmaceuticals Limited, priority 2019, published 2022).
Values after ≈ are worked out from the molar mass of the structure shown. Like-named read-outs stand apart in the source and are kept apart here.

Assays:
[1] = tested on: Staphylococcus aureus ATCC 43300 MRSA; experiment: Antibacterial time kill assay; format: cell-based; settings: for MIC: Staphylococcus aureus
Protocol: The time-kill method is based on CLSI guideline M26-A (NCCLS, 1999).
The collaborator supplied sample as dry material. A stock solution was prepared at 10 mg/mL in neat DMSO (11.2 mg in 1.12 mL of DMSO). The highest concentration tested in the assay was 64 μg/mL and 2% DMSO as a final concentration using 1/20 dilution to achieve these concentrations.
Time kill plates: CBD was plate across all the rows and serially diluted in Cation-adjusted Mueller Hinton Broth (CaMHB; BD, Cat. No. 212322) two-fold across the wells of polystyrene (PS) 96-well plates (Corning; Cat. No. 3370), plated in duplicate. Each row were taken as a time point, where row A, 0 h; row B, 1 h; row C, 2 h; row D, 3 h; row E, 4 h; row F, 6 h and row G, 24 h.
Also, control plates were made. CBD and standard antibiotics were serially diluted in Cation-adjusted Mueller Hinton Broth (CaMHB; BD, Cat. No. 212322) two-fold across the wells of polystyrene (PS) 96-well plates (Corning; Cat. No. 3370), plated in duplicate.
The tested bacteria was Staphylococcus aureus ATCC 43300 MRSA (ID GP_020:02).
Charcoal plate PS 96-well plates: 50 μL of sterile activated charcoal suspension (25 mg/ml) were added into row A. 90 μL of 0.9% sterile saline were added to subsequent rows.
Bacteria (Table 2.6) was cultured in CaMHB at 37° C. overnight, then diluted 40-fold and incubated at 37° C. for a further 2-3 h. The resultant mid-log phase cultures were diluted in CaMHB and added to each well of the control and time kill 96-well plates to give a final cell density of 5×10^5 CFU/mL, and a final compound concentration range of 0.03-64 μg/mL. The plates were covered and incubated at 37° C. for 24 h.
At selected time-points (0, 1, 2, 3, 4, 6 and 24 h), 50 μL of culture per-well was transferred from the time kill plate into the first row of charcoal plate (containing the charcoal suspension) to neutralise the compound. After mixing well, 10 μL were transferred from row A to row B to give a 1:10 dilution, this step was repeated until 1:10'000 (row E). […]
MICs and the time kill results were determined visually at 24 hr incubation. […]

[2] = tested on: Staphylococcus aureus ATCC 43300 MRSA; experiment: Forced evolution of resistance, 20 days serial passage and drug-free passages; format: cell-based; settings: for MIC: Staphylococcus aureus
Protocol: The collaborator supplied sample as dry material. A stock solution at 10 mg/mL in neat DMSO was prepared.
The mid log Staphylococcus aureus (ATCC 43300) growth culture was serially diluted and plated on a solid Tryptic Soy Agar (TSA) plates in duplicates and incubated at 37° C. overnight to determine viable colony count.
Staphylococcus aureus (ATCC 43300) was cultured in CaMHB at 37° C. overnight, then diluted 40-fold and incubated at 37° C. for a further 2-3 h. […] The plate was covered and incubated at 37° C. for 20 h.
Plate well with the highest drug concentration that permitted growth was then diluted. Despite plates were read by eye, reading at OD600 on the Epoch microplate spectrophotometer was used to adjust growth density of each well (it was approximately 1:1000). Then, 100 μL of the bacteria diluted was added to the new MIC plate. The OD600 was used to calculate the dilution of cells to a density of 10^6 CFU/mL. Bacteria were diluted in CaMHB and 100 μL was added to each well of the next replicate passage. The final well volume was 200 μL with a cell density of 5×10^5 CFU/mL. Each replicate (row) was assess as different strain, for this reason the dilution was done for each replicate.
Once prepared, the plate was covered and incubated at 37° C. overnight. Plate reading, compound preparation and bacterial preparation were repeated from Day 2 to Day 20.
Depending on the MIC of the day before, CBD tested concentrations were established.
Depending on the MIC of the day before, CBD and daptomycin tested concentrations were established to ensure at least three concentrations above, and three concentrations below MIC, based on the previous MIC results. Compounds were prepared in Protein LoBind Eppendorf 1.5 mL safelock tubes, diluting 320 μg/mL stock in DMSO in CaMHB to achieve two-fold the desired testing concentrations. The 100 μL of the selected concentration were added to each well (See FIG. 1). […] It was incubated at 37° C. overnight. Next day the same procedure was repeated.
Following 20 days of passaging in the presence of CBD and daptomycin, each replicate was passaged for 4 days in drug-free media to assess the stability of any induced resistance.
Day 20 plate was read and the same bacterial preparation methodology was followed. Same concentrations used in day 20 for CBD were used for the 4 days drug free passages. […] These concentrations were used for the 4 days drug free passages. Column 11 was used as the drug-free passage well, and column 12 as a negative growth control with 200 μL uninoculated media in each well. Diluted bacteria were added to the plate, one replicate per row, 100 μL per well. The final well volume was 200 μL with a cell density of 5×10^5 CFU/mL in columns 1-11, and CBD concentration range from 16-0.03 μg/mL in columns 1-10 (FIG. 2).
Subsequent drug-free passage plates were prepared in the same manner, except each replicate bacteria was passaged from column 11, the drug-free growth control well.
Alongside the test plate, a culture of S. aureus was passaged for 24 days without CBD, to establish a baseline for non-selective mutations in the growth conditions described.
Six wells were used as a positive growth controls, and six as negative growth controls with uninoculated media.
Subsequent passages were inoculated from well H7. The bacterial growth in H7 was resuspended by pipetting, then plates were read for optical density by spectrophotometer (Biotek Epoch) at 600 nm (OD600). The OD600 was used to calculate the dilution of cells to a density of 10^6 CFU/mL. Bacteria were diluted in CaMHB and 50 μL was added to each well of the next passage.

[3] = tested on: S. aureus MRSA (106 strains); experiment: MIC50/MIC90 micro-broth dilution, MRSA strains; format: cell-based, Staphylococcus aureus; settings: for Staphylococcus aureus MRSA MIC distribution, number of strains: Table 19
[4] = tested on: A. acidipropionici ATCC 25562; experiment: Anaerobic MIC micro-broth dilution; format: cell-based, Acidipropionibacterium acidipropionici; settings: A. acidipropionici ATCC 25562, anaerobic chamber, BHI, 48 h
[5] = tested on: S. aureus ATCC 43300; experiment: Anaerobic MIC micro-broth dilution; format: cell-based, Staphylococcus aureus; settings: S. aureus ATCC 43300, anaerobic chamber, BHI, 48 h
[6] = tested on: Bacillus megaterium ATCC 13632; experiment: Expanded panel MIC micro-broth dilution; format: cell-based; settings: CaMHB
Protocol: (§1) The collaborator supplied sample as dry material. Angela Kavanagh prepared a stock solution at 10 mg/mL in neat DMSO. The highest concentration tested in the assay was 64 μg/mL for bacteria and 128 μg/mL for fungi. 2% DMSO was the final concentration using 1/20 dilution to achieve these concentrations.
(§2) The compound was serially diluted in Cation-adjusted Mueller Hinton Broth (CaMHB; BD, Cat. No. 212322) two-fold across the wells of polystyrene (PS) 96-well plates (Corning; Cat. No. 3370), plated in duplicate. All plates had flat bottom wells and were covered with low-evaporation lids.
(§3) Bacteria were cultured in CaMHB at 37° C. overnight, then diluted 40-fold and incubated at 37° C. for a further 2-3 h. The resultant mid-log phase cultures were diluted in CaMHB and added to each well of the compound-containing 96-well plates to give a final cell density of 5×10^5 CFU/mL, and a final compound concentration range of 0.03-64 μg/mL. The plates were covered and incubated at 37° C. for 20 h.
(§4) Inhibition of bacterial growth was determined visually, where the MIC was recorded as the lowest compound concentration with no visible growth.

[7] = tested on: Kocuria rosea ATCC 31251; experiment: Expanded panel MIC micro-broth dilution; format: cell-based; settings: CaMHB
Protocol: as §1, §2, §3, §4

[8] = tested on: Staphylococcus aureus ATCC 25923; experiment: Expanded panel MIC micro-broth dilution; format: cell-based; settings: CaMHB
Protocol: as §1, §2, §3, §4

[9] = tested on: Staphylococcus aureus ATCC 29213; experiment: Expanded panel MIC micro-broth dilution; format: cell-based; settings: CaMHB
Protocol: as §1, §2, §3, §4

[10] = tested on: Staphylococcus aureus ATCC 700699, NRS 1; experiment: Expanded panel MIC micro-broth dilution; format: cell-based; settings: CaMHB, read-out: Cannabidiol MIC (Batch 1)
Protocol: as §1, §2, §3, §4

[11] = tested on: Staphylococcus capitis ATCC 27840; experiment: Expanded panel MIC micro-broth dilution; format: cell-based; settings: CaMHB
Protocol: as §1, §2, §3, §4

[12] = tested on: Streptococcus pyogenes ATCC 12344; experiment: Expanded panel MIC micro-broth dilution; format: cell-based; settings: ATCC12344, CaMHB, read-out: Cannabidiol MIC (Batch 1)
Protocol: as §1, §2, §3, §4

`C=C(C)C1CCC(C)=CC1c1c(O)cc(CCCCC)cc1O` (stereo not shown) [Cannabidiol, 2-[3-methyl-6-(1-methylethenyl)-2-cyclohexen-1-yl]-5-pentyl-1,3-benzenediol] was tested. Which MIC ([1]; CaMHB, 24 hr, read-out: CBD control MIC of the day) did it give?
The MIC was 2 µg/mL.

And the MIC ([1]; read-out: previous MIC data)?
The MIC was 1 to 2 µg/mL (≈ 3.18 to 6.36 µM).

What about the “treatment time after which bactericidal” value ([1]; concentrations over or equal to the MIC value) of the same compound?
The value was 3 h.

And the MIC ([2]; 216 h, read-out: measured MIC on Day 9)?
The MIC was 1 µg/mL (≈ 3.18 µM).

What about the MIC ([2]; 312 h, read-out: MIC of replicate 1 at day 13) of the same compound?
The MIC was greater than 7 µg/mL.

And the MIC ([2]; 432 h, read-out: MIC of replicate 1 by day 18)?
The MIC was greater than 128 µg/mL.

What about the MIC ([2]; 480 h, read-out: MIC through the 20 days of assay) of the same compound?
Its MIC is 2 to 4 µg/mL (≈ 6.36 to 12.7 µM).

And the MIC ([2]; read-out: MIC of replicates 2 and 8 on Days 20 and 21)?
The MIC was 6 to 16 µg/mL.

What about the “MIC of replicate 1 before the increase” value ([2]; replicate 1) of the same compound?
Its value is 3.5 µg/mL.

And the MIC50 ([3]; Staphylococcus aureus, S. aureus MRSA, read-out: MIC 50)?
Its MIC50 is 2 µg/mL (≈ 6.36 µM).

What about the MIC90 ([3]; Staphylococcus aureus, S. aureus MRSA, read-out: MIC 90) of the same compound?
The MIC90 was 4 µg/mL (≈ 12.7 µM).

And the “Staphylococcus aureus MRSA MIC distribution, number of strains” value ([3]; MIC 0.015)?
Its value is 0.

And the “Staphylococcus aureus MRSA MIC distribution, number of strains” value ([3]; MIC 0.03)?
Its value is 0.

What about the “Staphylococcus aureus MRSA MIC distribution, number of strains” value ([3]; MIC 0.06) of the same compound?
The value was 0.

And the “Staphylococcus aureus MRSA MIC distribution, number of strains” value ([3]; MIC 0.5)?
The value was 0.

What about the “Staphylococcus aureus MRSA MIC distribution, number of strains” value ([3]; MIC 1) of the same compound?
The value was 4.

And the “Staphylococcus aureus MRSA MIC distribution, number of strains” value ([3]; MIC 2)?
Its value is 82.

And the “Staphylococcus aureus MRSA MIC distribution, number of strains” value ([3]; MIC 4)?
The value was 18.

And the “Staphylococcus aureus MRSA MIC distribution, number of strains” value ([3]; MIC 8)?
The value was 1.

What about the “Staphylococcus aureus MRSA MIC distribution, number of strains” value ([3]; MIC 16) of the same compound?
The value was 0.

And the “Staphylococcus aureus MRSA MIC distribution, number of strains” value ([3]; MIC 32)?
The value was 0.

What about the MIC [4] of the same compound?
The MIC was “active”.

And the MIC ([4]; Acidipropionibacterium acidipropionici, ATCC25562, read-out: MIC)?
Its MIC is 0.5 µg/mL (≈ 1.59 µM).

What about the MIC ([5]; listed as Cannabidiol (Batch 2)) of the same compound?
The MIC was 2/1.

What about the MIC ([5]; listed as Cannabidiol (CBD)) of the same compound?
Its MIC is “active”.

What about the “Cannabidiol MIC (Batch 1)” value ([6]; Bacillus megaterium ATCC 13632) of the same compound?
The value was 2 µg/mL.

What about the MIC ([6]; Priestia megaterium, ATCC13632, Bacillus megaterium ATCC 13632, read-out: Cannabidiol MIC (Batch 1)) of the same compound?
The MIC was 1 µg/mL (≈ 3.18 µM).

And the “Cannabidiol MIC (Batch 1)” value ([7]; Kocuria rosea ATCC 31251)?
Its value is 2 µg/mL.

And the MIC ([7]; Kocuria rosea, ATCC31251, Kocuria rosea ATCC 31251, read-out: Cannabidiol MIC (Batch 1))?
Its MIC is 1 µg/mL (≈ 3.18 µM).

And the “Cannabidiol MIC (Batch 1)” value ([8]; Staphylococcus aureus ATCC 25923)?
Its value is 2 µg/mL.

What about the MIC ([8]; Staphylococcus aureus, ATCC25923, Staphylococcus aureus ATCC 25923, read-out: Cannabidiol MIC (Batch 1)) of the same compound?
Its MIC is 1 µg/mL (≈ 3.18 µM).

What about the “Cannabidiol MIC (Batch 1)” value ([9]; Staphylococcus aureus ATCC 29213) of the same compound?
Its value is 2 µg/mL.

What about the MIC ([9]; Staphylococcus aureus, ATCC29213, Staphylococcus aureus ATCC 29213, read-out: Cannabidiol MIC (Batch 1)) of the same compound?
Its MIC is 1 µg/mL (≈ 3.18 µM).

And the MIC [10]?
The MIC was 4 µg/mL (≈ 12.7 µM).

What about the “Cannabidiol MIC (Batch 1)” value ([11]; Staphylococcus capitis ATCC 27840) of the same compound?
The value was 2 µg/mL.

What about the MIC ([11]; Staphylococcus capitis, ATCC27840, Staphylococcus capitis ATCC 27840, read-out: Cannabidiol MIC (Batch 1)) of the same compound?
The MIC was 1 µg/mL (≈ 3.18 µM).

What about the MIC [12] of the same compound?
The MIC was 1 µg/mL (≈ 3.18 µM).
